From a melting point compilation (Tetko et al.; mined from patent text by program, amines drawn as free bases though some values may be those of a salt)

Row | SMILES | melting point [°C]
1 | COc1cc(Cl)cc(CSCCNC(=O)c2c(Cl)cccc2Cl)c1 | 83 to 84
2 | COc1ccc(Cn2c(=O)c(C#N)c(Cl)c3cc(Cl)cnc32)cc1 | 208
3 | CSc1nnc(C(F)(F)F)n1C | 46
4 | Cc1cc(C(=O)Nc2cc(Oc3ccc4nc(NC(=O)C5CC5)cn4n3)ccc2C)n(C)n1 | 223
5 | CCC(=O)Nc1cscn1 | 129 to 132
6 | c1ccc(C(c2ccccc2)N2CC2)cc1 | 56 to 58
7 | COc1cc(C(=O)NCc2ccc(-c3csc(N)n3)s2)cc(OC)c1OC | 217
8 | O=C(NCC1(O)CCCCCC1)c1cc(-c2cccnc2C(=O)O)ccc1Cl | 95 to 100
9 | Cc1noc(C)c1Cn1cc(N2C(=O)CNC2=O)cn1 | 169 to 171
10 | CCN(CC)CCCNC(=O)Cn1cnc(-c2ccccc2)c1-c1ccccc1 | 81 to 83
11 | CNc1nc(-c2cccc(NCc3ccccc3)c2)c2cc(OC)c(OC)cc2n1 | 146 to 148
12 | CCOc1nc(NCc2ccco2)nc(Oc2cccc(C(F)(F)F)c2)n1 | 97 to 99
13 | CCCCc1oc2ccccc2c1C(=O)NCc1ccc2c(-c3ccccc3)c(OCc3nnn[nH]3)ccc2c1 | 192 to 196
14 | CCCCCCC#Cc1csc(C=O)c1 | 2
15 | COc1cc(C(C)C)c2c(c1)S(=O)(=O)N(COc1cc(C(F)(F)F)nn1-c1ccccn1)C2=O | 132 to 133
16 | CCOC1OC(C(O)CO)C(O)C1O (stereo unspecified) | 59 to 60
17 | CCCCc1ccc(NC(=O)CCC)c(N=C(NC(=O)OC)SC)c1 | 116
18 | CC(C)CCN1CCC2(CC1)CSC1=C(O2)c2ccccc2C(=O)C1=O | 143 to 146
19 | CCOC(=O)C1Cc2cc3c(-c4ccccc4F)noc3c(C)c2O1 (stereo unspecified) | 124 to 125
20 | O=C1OCCC12Sc1ccccc1C2=O (stereo unspecified) | 125 to 127
21 | CCc1coc2c(Cc3ccc(C(C)C)cc3)c(C)cc(C)c12 | 62 to 64
22 | Cc1cc2ncnn2nc1OCCOCCN1CCC(OC(c2ccccc2)c2ccccc2)CC1 | 80 to 82
23 | O=C(O)CN1CCCCC1 | 185 to 187
24 | CC1(C)CC(=O)Nc2ccc(N)cc21 | 126 to 130
25 | Cc1ccc(S(=O)(=O)N(CCN(CC(=O)O)S(=O)(=O)c2ccc(C)cc2)CCN(CC(=O)O)S(=O)(=O)c2ccc(C)cc2)cc1 | 177 to 180
26 | Cc1cc(SCc2ccc(OCc3ccc(C(F)(F)F)cc3)cc2)ccc1OCC(=O)O | 133

Row | SMILES | melting point [°C]
27 | CC(C)(C)OC(=O)NC1CCCCCC=CC2CC2(C(=O)NS(=O)(=O)C2CC2)NC(=O)C2CC(OC(=O)c3ccc(-n4cccn4)cc3)CN2C1=O (stereo unspecified) | 167 to 169
28 | C=CCNC(=O)c1ccc(N)cc1Br | 115 to 117
29 | CN(C)c1cccc(/C=C/c2c(F)cccc2F)c1 | 69 to 71
30 | CCn1cc(C(=O)O)c(=O)c2cnc(N3CCN(C)CC3)nc21 | 232 to 233
31 | CCC(C)=NOC(=NC1CCCCC1)N(C(=O)c1ccccc1)C1CCCCC1 | 74 to 78
32 | O=C(Nc1ccn(C(=O)c2ccccc2)c(=O)n1)c1ccccc1 | 215 to 216
33 | COc1ccc2c3c(cn2S(=O)(=O)c2ccc(C)cc2)CC(N=[N+]=[N-])C(=O)c13 (stereo unspecified) | 147 to 148
34 | Nc1cccc(Nc2ncnc3[nH]cc(C(=O)c4ccccc4)c23)n1 | > 300
35 | COc1ccc(-c2cn(-c3cccc(OCCCl)c3)c3ncnc(N)c23)cc1OCc1ccccc1 | 170
36 | Nc1ccc2c(ccn2-c2ccncc2)c1 | 149 to 154
37 | CN(CCCN)CCCNc1ccc2ncn3c4ccccc4c(=O)c1c23 | 97 to 99
38 | CCCCCCCCCCC#Cc1c2ccccc2c2ccc3c(C#CCCCCCCCCCC)c4ccccc4c4ccc1c2c34 | 129 to 130
39 | COc1ccc(OC)c2c1C(=O)C=C(SCCCCCCO)C2=O | 87 to 88
40 | Cc1cc(Cn2nc(C(F)(F)C(F)(F)F)nc2C(F)(F)F)ccc1NC(=O)c1cccc(Br)c1C(=O)N[C@@H](C)CS(C)(=O)=O | 104 to 108
41 | CCCCCCCCCCc1ccc(NC(=O)c2cccc(-c3ccccc3)c2O)cc1 | 74 to 75
42 | CC(C)(O)[C@H]1C[C@@H](C(=O)O)C1(C)C | 98 to 99
43 | Clc1ccc(N2CCN(Cc3coc4cccnc34)CC2)cc1 | 128 to 129
44 | CC(C)(O)CC1c2ccccc2C(=O)N1CC(=O)O (stereo unspecified) | 198 to 199
45 | O=C(O)CCCC(=O)c1cc(-c2ccccc2)nc2ccccc12 | 136
46 | COc1ccc(S(=O)(=O)Nc2ccccc2OC)cc1 | 85.5 to 87
47 | Cc1cc(=O)oc2c(C)c(O)c([N+](=O)[O-])cc12 | 230 to 232
48 | CCCCOc1ccc(-c2ccc3c(c2)C=C(C(=O)O)CCS3(=O)=O)cc1 | 244 to 247
49 | COc1ccc(CNc2nc(OCc3ccccn3)ncc2C(=O)c2ccccn2)cc1Cl | 81 to 84
50 | CCCn1c(=O)c2[nH]c(C3CCCC3)nc2n(CCc2ccc(NC(=O)CC)cc2)c1=O | > 270
51 | CCCCP(=CC#N)(CCCC)CCCC | 131 to 132
52 | COC(=O)c1cc(OC)c(N(C)C)c(OC)c1 | 71 to 72

Row | SMILES | melting point [°C]
53 | CCCCCCCCCCCCc1ccccc1C(Sc1nc(CCC)c(C(=O)O)n1C)C(=O)O (stereo unspecified) | 124 to 125
54 | CC(C)(C)N1C(=O)c2cnc(CCl)cc2C1=O | 62 to 64
55 | O=[N+]([O-])c1cc(N=c2sc(=S)n3n2CCCC3)c(F)cc1Cl | 171 to 173
56 | C=CC(CC(O)C(CC1CCCCC1)NC(=O)C(Cc1c[nH]cn1)NC(=O)C(CN)(Cc1ccccc1)Cc1ccccc1)C(C)C (stereo unspecified) | 89
57 | CC(=O)OC1COC(Br)C(OC(C)=O)C1OC(C)=O (stereo unspecified) | 92
58 | C=CCOc1ccccc1OCC(O)CNC(C)C (stereo unspecified) | 76 to 79
59 | CCc1nc2c(cnn2CC)c(NC2CCOCC2)c1CNC(=O)c1cccc(C(=O)NCc2ccc(OC)c(-c3cccc(CN4CCCN(C)CC4)c3)c2)c1 | 116 to 119
60 | Cc1nc2c(s1)CN=C(c1ccccc1Cl)c1cc(Cl)ccc1-2 | 162 to 164
61 | O=C1CC(C(F)(F)F)CC(=O)N1c1cc(C2OCCCO2)c(Cl)cc1F | 158 to 161
62 | Cc1csc(C(=O)OC(C)C)c1N | 40
63 | C[C@H]1NC(Cc2ccc(Br)c(Oc3cc(C#N)cc(C(F)F)c3)c2F)=NNC1=O | 184 to 186
64 | O=C1C(=CN2CCCC2)c2ccccc2N1c1cccc(Cl)c1 | 108 to 112
65 | N#CCc1cccc(C(=O)c2ccc(Cl)cc2)c1 | 86 to 90
66 | Cc1c(OCC(O)CN2CCOCC2)noc1-c1ccccc1 (stereo unspecified) | 94 to 95
67 | O=C(NCCO)c1cccc(-c2ccc3c(c2)C(Oc2ccc(Cl)cc2Cl)CC3)c1 (stereo unspecified) | 155 to 156
68 | Oc1nn(-c2ccccc2)cc1Cc1ccccc1 | 185 to 186
69 | N#CCCNC(=O)c1cccc(-c2ccc3c(c2)C(c2ccc(Cl)cc2Cl)CC3)c1 (stereo unspecified) | 112 to 114
70 | Cc1cc2c(cc1C)C(=CC#N)OC2=O | 165 to 181
71 | CCOP1(=S)OCc2cc(C)cnc2O1 (stereo unspecified) | 54 to 55
72 | Nc1c2c(nc3ccccc13)CCSC2 | 214 to 216
73 | O=C1CCCc2c(Cl)cccc2-c2ccccc21 | 118
74 | CCCCCCCCCCCCCCCC(=O)Oc1ccc(C(O)CNCCc2ccc(OC)c(OC)c2)cc1 (stereo unspecified) | 79 to 81
75 | COc1cc(OC)cc(-c2nsnc(Cl)c2=O)c1 | 121 to 124
76 | C=CC(CC(O)C(CC1CCCCC1)NC(=O)C(Cc1c[nH]cn1)NC(=O)C(Cc1ccccc1)N(C)C(=O)CC(C)(C)C)C(C)C (stereo unspecified) | 126
77 | N#CC(C(=O)Nc1ccccc1)C(=O)c1nn(-c2ccccc2)c2c1COc1ccc(Cl)cc1-2 (stereo unspecified) | 243 to 246
78 | CCC(C)(O)CNc1c(N)c(Cl)nc2ccccc12 (stereo unspecified) | 99 to 101

Row | SMILES | melting point [°C]
79 | COc1ccc(OC)c2c1C[C@@H](O)[C@@H](N)C2 (relative stereo) | 193 to 196
80 | C=CCn1c(CSC#N)nc2ccccc2c1=O | 73 to 76
81 | COc1ccccc1-n1c(=O)[nH]c2c(C(N)=O)nc(-c3ccc4nc(C(F)(F)F)[nH]c4c3)nc21 | 220 to 222
82 | Nc1cc(C(F)(F)F)ccc1S(=O)(=O)c1ccccc1 | 142 to 143
83 | COc1ccc(C2=NC(C)(C)C(c3cccs3)C2)cc1 (stereo unspecified) | 84
84 | CCCOc1ccc(S(=O)(=O)Nc2ccc3[nH]ncc3c2)cc1-c1nc2cc3nc[nH]c3cc2c(=O)[nH]1 | 261 to 263
85 | Cc1cc(C#N)cc(C(=O)Nc2cccc(Cl)c2)n1 | 148
86 | O=C(O)C1OCC(O)C(O)C1O (stereo unspecified) | 194 to 196
87 | COC(=O)C(C)Oc1ccccc1S(=O)(=O)NC(=O)Nc1nc(C)cc(C)n1 (stereo unspecified) | 200 to 203
88 | Cc1c(Br)cc(C(C)(C)C)c(O)c1C(=O)O | 54 to 58
89 | COc1ccc2c(C(=O)NCCCCC(=O)O)cc3cc4c(cc3c2c1)OCO4 | 137 to 138
90 | CC(Cl)(Cl)C(NC(=O)c1cccc(F)c1)NC(=NC#N)Nc1ccc(Cl)nc1 (stereo unspecified) | 191 to 192
91 | CC(C)(S)CNCc1ccc(O)cc1 | 85 to 87
92 | COc1cc(-c2nc3ccc(OCCN(C)C)cc3n2Cc2ccccc2C(F)(F)F)cc(OC)c1OC | 151
93 | CCCc1nc2c(N)nc(C)c(C)c2n1CCCCN1CCCS1(=O)=O | 155 to 161
94 | OCc1cnc2sc3ccccc3n12 | 183 to 184
95 | CC(C)(C=NO)C1CCN(CC#Cc2cc(C(F)(F)F)cc(C(F)(F)F)c2)CC1 | 63 to 65
96 | CC(=O)Oc1ccccc1CC1c2ccccc2Oc2ccccc21 | 77 to 79
97 | COc1ncc(C(=O)N(C)Cc2cc(C(F)(F)F)cc(C(F)(F)F)c2)c(-c2ccccc2)n1 | 101 to 102
98 | CN(C)C(=O)Cc1cccc(NC(=O)N(C)C)c1 | 80 to 81
99 | C[C@@H]1CC(=O)CC(C)(C)C1=O | 91 to 92
100 | COc1c(C)c(C)cc(C)c1C(O)(c1ccc(F)cc1)C(C)C (stereo unspecified) | 102 to 103
101 | S=C(NCCc1c[nH]cn1)NCCN(Cc1ccc(Cl)c(Cl)c1)c1ccc(Br)cn1 | 72 to 78
